Laboratory results published in US11174301B2 (Takeda Pharmaceutical Company Limited, priority 2017, dated 2021).

Assays:
Format in all cases: in vivo
C57BL/6J mice [1] = test: Oral glucose tolerance test (2); conditions: 3 nmol/kg, s.c. 72 hours before glucose loading, 30 minutes after oral glucose, control group = 100
Procedure: Oral Glucose Tolerance Test (2)
An oral glucose tolerance test (OGTT) was carried out using C57BL/6J mice with a […].

ferrets [2] = test: Morphine-induced acute emetic model in ferrets; conditions: for Ferrets in which the vomiting symptom was observed: 30 nmol/kg s.c., morphine 0.6 mg/kg s.c. 4 hours after administration, monitored 60 minutes, FIG. 6A; for Ferrets in which the vomiting symptom was observed / Vomiting symptom, morphine 120 hours after administration: n=4; for Vomiting symptom, morphine 120 hours after administration: 144 μg/kg (30 nmol/kg) s.c., morphine 0.6 mg/kg s.c. 120 hours after administration, FIG. 6B; for Morphine-induced emesis: 1 nmol/kg s.c. 30 minutes before morphine (0.6 mg/kg, s.c.)
Procedure: 4. Effect of Subcutaneously Administered GIP Agonist Analogue in Morphine-Induced Acute Emetic Model
Male ferrets (4-month-old) were repeatedly used until 8-month-old. To evaluate the antiemetic effect, the GIP agonist analogues other than natural human GIP were subcutaneously administered 30 minutes before morphine administration. Natural human GIP was subcutaneously administered 5 minutes before morphine administration.
At the time of each of 4 hours, or 120 hours after administration, 0.6 mg/kg of morphine was subcutaneously administered. Up to 60 minutes after morphine administration, the condition of the ferrets was monitored to record the frequencies and time points of abdominal contraction motions, vomiting behaviors, licking with the tongue, and fidgety behavior occurring.

ferrets [3] = test: Cisplatin-induced delayed vomiting model in ferrets; conditions: monitored 72 hours
Procedure: Up to 72 hours after cisplatin administration, the condition of the ferrets was monitored to record the frequencies and time points of abdominal contraction motions and vomiting behaviors occurring.

C57BL/6J mice [4] = test: Oral glucose tolerance test (1); conditions: 0.03 nmol/kg, s.c. 30 minutes before glucose loading, control group = 100; for Rate of increase in blood glucose level (%) 30 min: 30 minutes after oral glucose; for Rate of increase in blood glucose level (%) 60 min: 60 minutes after oral glucose
Procedure: Oral Glucose Tolerance Test (1)
An oral glucose tolerance test (OGTT) was carried out using C57BL/6J mice with a […].

male C57BL/6J mice = test: Conditioned taste aversion test in mice (PYY-1119-induced)
Procedure: Test Example 3: Conditioned Taste Aversion Test in Mice (FIG. 1A, FIG. 1B)
Additionally, the test compound or a solvent is subcutaneously administered simultaneously with PYY-1119.
On day 2, only a solvent is administered 10 minutes after presenting tap water.
On day 4, only tap water is presented.
On day 5, a test of selection from the bottles of saccharine water and tap water is carried out and preferential selection of saccharine water is evaluated.

ferrets [5] = test: Cisplatin-induced acute vomiting model in ferrets
Procedure: Test Example 4: Vomiting Suppression Test in Ferrets
The ferret test was carried out by Nissei Bilis Co., Ltd. (Shiga prefecture, Japan). Cisplatin (10 mg/kg i.p.) was administered to male ferrets (10-week-old, n=6) to induce acute vomiting. […] The frequency of emesis (feeling queasy, vomiting) was monitored over a period of 8 hours after cisplatin administration.
Up to 6 hours after cisplatin administration, the condition of the ferrets was monitored to record the frequencies and time points of abdominal contraction motions and vomiting behaviors occurring.

beagles = test: PYY-1119-induced vomiting in dogs; conditions: for Frequency of vomiting: 2-hour observation

| Substance | Rate of increase in blood glucose level (%) 30 min (C57BL/6J mice [4]) | Rate of increase in blood glucose level (%) 60 min (C57BL/6J mice [4]) | Morphine-induced emesis (ferrets [2]; FIG. 3, FIG. 4) | also measured |
| --- | --- | --- | --- | --- |
| H-MeTyr-Aib-Glu-Gly-Thr-Iva-Ile-Ser-Asp-Tyr-Ser-Ile-Aib-Leu-Asp-Arg-Lys(Oda-GGGGG-)-Ala-Gln-Aib-Asn-Phe-Val-Asn-Trp-Iva-Leu-Ala-Gln-Arg-Pro-Ser-Ser-Gly-Ala-Pro-Pro-Pro-Ser-NH2 [Compound 349] |  |  |  | Rate of increase in blood glucose level (%) 72 hr (C57BL/6J mice [1]): 69%; Ferrets in which the vomiting symptom was observed (ferrets [2]): none of the 4 ferrets; Vomiting symptom, morphine 120 hours after administration (ferrets [2]): suppression of the vomiting symptom was noted |
| H-MeTyr-Aib-Glu-Gly-Thr-Iva-Ile-Ser-Asp-Tyr-Ser-Ile-Aib-Lys(Eda-GGGGG-)-Asp-Arg-Aib-Ala-Gln-Aib-Asn-Phe-Val-Asn-Trp-Iva-Leu-Ala-Gln-Arg-Pro-Ser-Ser-Gly-Ala-Pro-Pro-Pro-Ser-NH2 [Compound 341] |  |  |  | Rate of increase in blood glucose level (%) 72 hr (C57BL/6J mice [1]): 47%; Cisplatin-induced delayed vomiting symptom (ferrets [3]; 144 μg/kg (30 nmol/kg) s.c. 34 hours after cisplatin 5 mg/kg i.p.): suppression of the vomiting symptom was noted; Ferrets in which the vomiting symptom was observed (ferrets [2]): none of the 4 ferrets; Vomiting symptom, morphine 120 hours after administration (ferrets [2]): none of the 4 ferrets |
| H-Tyr-Aib-Glu-Gly-Thr-Val-Val-Ser-Leu-Tyr-Ser-Ile-Aib-Leu-Asp-Arg-Gln-Ala-Gln-Aib-Glu-Phe-Val-Arg-Trp-Leu-Leu-Arg-Gly-Gly-Pro-Ser-Ser-Gly-Ala-Pro-Pro-Pro-Ser-Arg-NH2 [Compound 30] | 96% | 85% |  |  |
| H-Tyr-Aib-Glu-Gly-Thr-Val-Val-Ser-Leu-Tyr-Ser-Ile-Aib-Leu-Asp-Lys-Gln-Ala-Gln-Aib-Glu-Phe-Val-Lys-Trp-Aib-Leu-Lys-Gly-Gly-Pro-Ser-Ser-Gly-Ala-Pro-Pro-Pro-Ser-Lys-NH2 [Compound 42] | 70% | 43% |  |  |
| H-Tyr-Aib-Glu-Gly-Thr-Val-Val-Ser-Leu-Tyr-Ser-Ile-Aib-Leu-Asp-Lys-Gln-Ala-Gln-Aib-Glu-Phe-Val-Lys-Trp-Leu-Leu-Lys-Gly-Gly-Pro-Ser-Ser-Gly-Ala-Pro-Pro-Pro-Ser-Lys-NH2 [Compound 6] | 56% | 31% | completely attenuated | PYY-1119-induced taste aversion (male C57BL/6J mice; 1, 3, 10, 30 or 100 nmol/kg s.c. simultaneously with PYY-1119 (10 nmol/kg, s.c.), FIG. 1A): suppressed the PYY-1119-induced taste aversion in a dose-dependent manner; Cisplatin-induced acute emesis (frequency of emesis) (ferrets [5]; 167 nmol/kg/hour subcutaneously injected from 1 hour before cisplatin (10 mg/kg i.p.), monitored 8 hours, FIG. 2A): completely eliminated the acute emesis; Frequency of vomiting (beagles; 150 nmol/kg s.c. 10 minutes before PYY-1119 (10 μg/kg, s.c.), FIG. 7A): 0 to 3 times |
| Methyl-Tyr-Aib-Glu-Gly-Thr-Iva-Ile-Ser-Asp-Tyr-Ser-Ile-Aib-Leu-Asp-Arg-Aib-Ala-Gln-Aib-Asn-Phe-Val-Asn-Trp-Iva-Leu-Ala-Gln-Arg-Pro-Ser-Ser-Gly-Ala-Pro-Pro-Pro-Ser-Arg-NH2 [Compound 113] | 48% | 11% |  | Morphine-induced emesis (ferrets [2]; 0.1 nmol/kg, FIG. 5): suppressed the morphine-induced emesis |
| Methyl-Tyr-Aib-Glu-Gly-Thr-Iva-Ile-Ser-Asp-Tyr-Ser-Ile-Ala-Leu-Asp-Arg-Aib-Ala-Gln-Aib-Asn-Phe-Val-Asn-Trp-Leu-Leu-Ala-Gln-Arg-Pro-Ser-Ser-Gly-Ala-Pro-Pro-Pro-Ser-Arg-NH2 [Compound 104] | 31% | 8% | suppressed the morphine-induced emesis |  |
| Methyl-Tyr-Aib-Glu-Gly-Thr-Phe-Ile-Ser-Asp-Tyr-Ser-Ile-Ala-Leu-Asp-Arg-Aib-His-Gln-Aib-Asn-Phe-Val-Asn-Trp-Iva-Leu-Ala-Gln-Arg-Pro-Ser-Ser-Gly-Ala-Pro-Pro-Pro-Ser-Arg-NH2 [Compound 117] | 51% | 16% | suppressed the morphine-induced emesis | PYY-1119-induced taste aversion (male C57BL/6J mice; 0.003, 0.01, 0.03, 0.1, 0.3 or 1 nmol/kg s.c. simultaneously with PYY-1119 (10 nmol/kg, s.c.), FIG. 1B): suppressed the PYY-1119-induced taste aversion in a dose-dependent manner; Cisplatin-induced acute vomiting symptom (ferrets [5]; 0.15, 0.5, 1.5, 5 and 15 μg/kg (0.03, 0.1, 0.3, 1 and 3 nmol/kg) s.c. 1 hour before cisplatin 10 mg/kg i.p., monitored 6 hours, FIG. 2B): suppression of the vomiting symptom was noted in a dose-dependent manner; Latency of the vomiting symptom (time from cisplatin administration to initial occurrence) (ferrets [3]; […] (0.3 nmol/kg) or 15 μg/kg (3 nmol/kg) s.c. 34 hours after cisplatin 5 mg/kg i.p., FIG. 2C): delayed; Frequency of vomiting (beagles; 10 nmol/kg s.c. 1 hour before PYY-1119 (10 μg/kg, s.c.), FIG. 7B): 0 to 3 times; Average suppression rate of the frequency of vomiting (beagles; 10 nmol/kg s.c. 1 hour before PYY-1119, versus medium group): 93% |
| Methyl-Tyr-Aib-Glu-Gly-Thr-Phe-Ile-Ser-Asp-Tyr-Ser-Ile-Ala-Leu-Asp-Arg-Ile-Ala-Gln-Gln-Asp-Phe-Val-Asn-Trp-Leu-Leu-Ala-Gln-Arg-Pro-Ser-Ser-Gly-Ala-Pro-Pro-Pro-Ser-Arg-NH2 [Compound 59] | 41% | 23% |  |  |
